From patent US20220265685A1, “METHODS AND COMPOSITIONS FOR IMPROVING COGNITIVE FUNCTION” (priority 2010, published 2022)

Legend:
[1] = test system: aMCI subjects; test: fMRI activity of medial temporal lobe subregions during the explicit 3-alternative forced choice task; format: in vivo, human; conditions: levetiracetam 125 mg twice a day for two weeks vs placebo
Description: A within-subjects trial of 8 weeks duration, involving 17 amnestic MCI (aMCI) subjects and 17 age-matched controls with a low dose treatment of levetiracetam is conducted. During the course of the study, each aMCI subject receives both drug and placebo treatments separately in two periods of two weeks each, with the order of treatments among different aMCI subjects counterbalanced (see FIG. 3). Age-matched control subjects treated with placebo serve as a further control. Cognitive testing and fMRI imaging data are obtained from the subjects after each two week period of drug/placebo treatment.
(§1) As described above, the drug treatment period is the two weeks preceding Visit 1 or 2 (with the two week period preceding the other Visit being the placebo phase). For the subjects receiving the drug treatment, half a scored 250 mg tablet of levetiracetam is used to achieve a dose of […], which is approximately 3.6 mg/kg/day (assuming an average adult human weight of 70 kg).
Imaging data are obtained through high-resolution methods developed in the Stark laboratory. […]
Group data are analyzed using a two-way Analysis of Variance (ANOVA) with trial types and group as fixed factors, and subject as a random factor nested within group. […]

[2] = test system: aMCI subjects; test: explicit 3-alternative forced choice task (lure stimuli), performance; format: in vivo, human; conditions: levetiracetam 125 mg twice a day for two weeks vs placebo, p=0.039
From the text: There are various tests known in the art for assessing cognitive function in humans, for example and without limitation, the clinical global impression of change scale (CIBIC-plus scale); the Mini Mental State Exam (MMSE); the Neuropsychiatric Inventory (NPI); the Clinical Dementia Rating Scale (CDR); the Cambridge Neuropsychological Test Automated Battery (CANTAB); the Sandoz Clinical Assessment-Geriatric (SCAG), the Buschke Selective Reminding Test (Buschke and Fuld, 1974); the Verbal Paired Associates subtest; the Logical Memory subtest; the Visual Reproduction subtest of the Wechsler Memory Scale-Revised (WMS-R) (Wechsler, 1997); or the Benton Visual Retention Test. […]
as §1
The activity of the subject's medial temporal lobe is measured by functional MRI during the subject's participation in an explicit 3-alternative forced choice task, where participants view novel, repeated and similar (“lure”) stimuli. […]

CC[C@@H](C(N)=O)N1CCCC1=O [levetiracetam, (2S)-2-(2-oxopyrrolidin-1-yl) butanamide]
entorhinal cortex (EC) activity during memory judgments [1]: increases EC activity | DG/CA3 activity during lure stimuli correctly identified as "similar" ([1]; p=0.037): reduces DG/CA3 hyper-activity | performance in the explicit 3-alternative forced choice task [2]: improves significantly
